Results on 19 compounds are retold here after patent US20250011300A1, “PIPERAZINYLSULFONYLARYL COMPOUNDS FOR TREATMENT OF BACTERIAL INFECTIONS” (Hoffmann-La Roche Inc., priority 2021, published 2025).

pIC50: −log10 of the molar value. ≈ marks a conversion by molar mass, not a printed value.

Assay [1] has as its target Escherichia coli LpxH (UDP-2,3-diacylglucosamine hydrolase) (Escherichia coli (strain K12), UniProt P43341). The assay is described as follows: 50% Inhibitory Concentration (IC50) to LpxH, UMP/CMP-Glo Glycosyltransferase Assay kit. It counts as biochemical. An outline of the steps: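 LpxH hydrolysis of UDP-2,3-diacylglucosamine to lipid X and UMP; UMP produced is converted to ATP and quantified by luciferase luminescence (UMP/CMP-Glo). Inhibition taken from reduced light output.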

The subject of assay [2] is K. pneumonia (ATCC 43816). Description: Minimal Inhibitory Concentration (MIC) assay, K. pneumonia. It is filed as cell-based. Conditions: Klebsiella pneumoniae; K. pneumoniae ATCC43816, CAMHB, 20 hours at 35° C.; read-out: MIC K. pneumoniae ATCC43816. Summed up: (§1)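 Broth microdilution in cation-adjusted Mueller Hinton broth, inoculum 5×10^5 CFU/mL, compounds 2-fold serially diluted from 10 mM DMSO stocks. Plates incubated 20 hours at 35° C in ambient air; MIC (μg/mL) is the lowest concentration preventing visible growth.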

In another assay the test system is E. coli (ATCC 25922). Description: Minimal Inhibitory Concentration (MIC) assay, E. coli. Conditions: Escherichia coli, ATCC25922; E. coli ATCC 25922, CAMHB, 20 hours at 35° C.; read-out: MIC E. coli ATCC 25922. It counts as cell-based. Summed up:
as §1

Chain of Escherichia coli LpxH (UDP-2,3-diacylglucosamine hydrolase) (P43341 whole entry): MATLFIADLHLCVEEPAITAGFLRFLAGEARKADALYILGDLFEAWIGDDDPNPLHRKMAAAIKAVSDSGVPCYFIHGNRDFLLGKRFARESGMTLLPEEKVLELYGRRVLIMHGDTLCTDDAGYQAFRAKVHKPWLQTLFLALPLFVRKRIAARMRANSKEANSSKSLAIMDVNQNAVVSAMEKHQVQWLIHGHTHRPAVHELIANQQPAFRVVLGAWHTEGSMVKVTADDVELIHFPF

`O=C1OC2C(O)C(CO)OC2N1c1ccc(S(=O)(=O)N2CCN(c3cc(C(F)(F)F)cc(Cl)n3)CC2)cc1` (stereo not drawn) [Example 21, 3-[4-[4-[6-Chloro-4-(trifluoromethyl)-2-pyridyl]piperazin-1-yl]sulfonylphenyl]-6-hydroxy-5-(hydroxymethyl)-3a,5,6,6a-tetrahydrofuro[2,3-d]oxazol-2-one]: in assay [1], the pIC50 (as a rule, −log10 of the IC50, conventionally taken in molar units) is 7.98. For the same compound, the MIC (usually the lowest concentration that inhibits growth of the organism) was 1.81 µg/mL (≈ 3.13 µM) in assay [2] and 0.91 µg/mL (≈ 1.57 µM) in the assay on E. coli (ATCC 25922).
The matching figures for `O=C1CC2(CCNCC2)CN1c1ccc(S(=O)(=O)N2CCN(c3cc(C(F)(F)F)cc(Cl)n3)CC2)cc1` [Example 11, 2-[4-[4-[6-Chloro-4-(trifluoromethyl)-2-pyridyl]piperazin-1-yl]sulfonylphenyl]-2,8-diazaspiro[4.5]decan-3-one]: 7.63, 4.2 µg/mL (≈ 7.53 µM) and 2.1 µg/mL (≈ 3.76 µM).
The matching figures for `NC1CC(=O)N(c2ccc(S(=O)(=O)N3CCN(c4cc(C(F)(F)c5cccnc5)cc(Cl)n4)CC3)cc2)C1` (stereo not drawn) [Example 90, 4-Amino-1-[4-[4-[6-chloro-4-[difluoro(3-pyridyl)methyl]-2-pyridyl]piperazin-1-yl]sulfonylphenyl]pyrrolidin-2-one]: 7.91, 1.76 µg/mL (≈ 3.13 µM) and 1.76 µg/mL (≈ 3.13 µM).
On the same counts, the results for `Cc1cc(C(F)(F)c2ccccc2)nc(N2CCN(S(=O)(=O)c3ccc(N4CC(N)CC4=O)cc3)CC2)n1` (stereo not drawn) [Example 76, 4-Amino-1-[4-[4-[4-[difluoro(phenyl)methyl]-6-methyl-pyrimidin-2-yl]piperazin-1-yl]sulfonylphenyl]pyrrolidin-2-one] are 7.56, 1.03 µg/mL (≈ 1.9 µM) and 0.51 µg/mL (≈ 0.94 µM).
Take `O=C1CC(CNCC2CNC2)CN1c1ccc(S(=O)(=O)N2CCN(c3cc(C(F)(F)F)cc(Cl)n3)CC2)cc1` (stereo not drawn) [Example 38, 4-[(Azetidin-3-ylmethylamino)methyl]-1-[4-[4-[6-chloro-4-(trifluoromethyl)-2-pyridyl]piperazin-1-yl]sulfonylphenyl]pyrrolidin-2-one]: in assay [1], the pIC50 was 7.32. The MIC (in assay [2]; in the assay with E. coli (ATCC 25922)) was 5.09 µg/mL (≈ 8.67 µM) throughout.
Compound `CC(=O)NCC1CN(c2ccc(S(=O)(=O)N3CCN(c4cc(C(F)(F)F)cc(Cl)n4)CC3)cc2)C(=O)O1` (stereo not drawn) [Example 4, N-[[3-[4-[4-[6-chloro-4-(trifluoromethyl)-2-pyridyl]piperazin-1-yl]sulfonylphenyl]-2-oxo-oxazolidin-5-yl]methyl]acetamide] gave a negative logarithm of the IC50 (pIC50) in assay [1] of 7.55. For the same compound, the values for the MIC (in assay [2]; in the assay on E. coli (ATCC 25922)) were 7.03 µg/mL (≈ 12.5 µM) and 3.51 µg/mL (≈ 6.25 µM), respectively.
The matching figures for `NC1CC(=O)N(c2ccc(S(=O)(=O)N3CCN(c4cc(C(F)(F)c5ccncc5)cc(Cl)n4)CC3)cc2)C1` (stereo not drawn) [Example 91, 4-Amino-1-[4-[4-[6-chloro-4-[difluoro(4-pyridyl)methyl]-2-pyridyl]piperazin-1-yl]sulfonylphenyl]pyrrolidin-2-one]: 7.97, 1.76 µg/mL (≈ 3.13 µM) and 1.76 µg/mL (≈ 3.13 µM).
The matching figures for `N[C@@H]1CC(=O)N(c2ccc(S(=O)(=O)N3CCN(c4cc(C(F)(F)[C@H]5CCCNC5)cc(Cl)n4)CC3)cc2)C1` [Example 108, (4R)-4-amino-1-[4-[4-[6-chloro-4-[difluoro-[(3S)-3-piperidyl]methyl]-2-pyridyl]piperazin-1-yl]sulfonylphenyl]pyrrolidin-2-one]: 7.45, 4.98 µg/mL (≈ 8.75 µM) and 4.98 µg/mL (≈ 8.75 µM).
With `O=C1CC2(CNC2)CN1c1ccc(S(=O)(=O)N2CCN(c3cc(C(F)(F)F)cc(Cl)n3)CC2)cc1` [Example 12, 6-[4-[4-[6-Chloro-4-(trifluoromethyl)-2-pyridyl]piperazin-1-yl]sulfonylphenyl]-2,6-diazaspiro[3.4]octan-7-one], the pIC50 in assay [1] was 7.16. For the same compound, the MIC in assay [2] is 4.03 µg/mL (≈ 7.6 µM); in the assay on E. coli (ATCC 25922), 2.01 µg/mL (≈ 3.79 µM).
The matching figures for `O=C1OC(CN2CCNCC2)CN1c1ccc(S(=O)(=O)N2CCN(c3cc(C(F)(F)F)cc(Cl)n3)CC2)cc1` (stereo not drawn) [Example 29, 3-[4-[4-[6-Chloro-4-(trifluoromethyl)-2-pyridyl]piperazin-1-yl]sulfonylphenyl]-5-(piperazin-1-ylmethyl)oxazolidin-2-one]: 7.59, 1.96 µg/mL (≈ 3.33 µM) and 1.96 µg/mL (≈ 3.33 µM).
The matching figures for `CNC1CN(CC2CC(=O)N(c3ccc(S(=O)(=O)N4CCN(c5cc(C(F)(F)F)cc(Cl)n5)CC4)cc3)C2)C1` (stereo not drawn) [Example 43, 1-[4-[4-[6-Chloro-4-(trifluoromethyl)-2-pyridyl]piperazin-1-yl]sulfonylphenyl]-4-[[3-(methylamino)azetidin-1-yl]methyl]pyrrolidin-2-one]: 7.81, 5.09 µg/mL (≈ 8.67 µM) and 3.82 µg/mL (≈ 6.51 µM).
Compound `CN1CCN(CC2CC(=O)N(c3ccc(S(=O)(=O)N4CCN(c5cc(C(F)(F)F)cc(Cl)n5)CC4)cc3)C2)CC1` (stereo not drawn) [Example 36, 1-[4-[4-[6-Chloro-4-(trifluoromethyl)-2-pyridyl]piperazin-1-yl]sulfonylphenyl]-4-[(4-methylpiperazin-1-yl)methyl]pyrrolidin-2-one] had a pIC50 in assay [1] of 7.57. Further, the MIC in assay [2] worked out at 3.76 µg/mL (≈ 6.26 µM); in the assay on E. coli (ATCC 25922) it was 1.88 µg/mL (≈ 3.13 µM).
The matching figures for `NCC1CN(CC2CC(=O)N(c3ccc(S(=O)(=O)N4CCN(c5cc(C(F)(F)F)cc(Cl)n5)CC4)cc3)C2)C1` (stereo not drawn) [Example 35, 4-[[3-(Aminomethyl)azetidin-1-yl]methyl]-1-[4-[4-[6-chloro-4-(trifluoromethyl)-2-pyridyl]piperazin-1-yl]sulfonylphenyl]pyrrolidin-2-one]: above 8.47, 1.27 µg/mL (≈ 2.16 µM) and 0.64 µg/mL (≈ 1.09 µM).
On the same counts, the results for `NC1CC(=O)N(c2ccc(S(=O)(=O)N3CCN(c4cc(C(F)(F)c5ccccc5)cc(Cl)n4)CC3)cc2)C1` (stereo not drawn) [Example 73, 4-Amino-1-[4-[4-[6-chloro-4-[difluoro(phenyl)methyl]-2-pyridyl]piperazin-1-yl]sulfonylphenyl]pyrrolidin-2-one] are 7.49, 0.44 µg/mL (≈ 0.783 µM) and 0.44 µg/mL (≈ 0.783 µM).
The matching figures for `O=C1CC(NC2CCNC2)CN1c1ccc(S(=O)(=O)N2CCN(c3cc(C(F)(F)F)cc(Cl)n3)CC2)cc1` (stereo not drawn) [Example 59, 1-[4-[4-[6-Chloro-4-(trifluoromethyl)-2-pyridyl]piperazin-1-yl]sulfonylphenyl]-4-(pyrrolidin-3-ylamino)pyrrolidin-2-one]: 7.02, 7.62 µg/mL (≈ 13.3 µM) and 3.81 µg/mL (≈ 6.65 µM).
`Cc1nc(N2CCN(S(=O)(=O)c3ccc(N4C[C@H](N)CC4=O)cc3)CC2)cc(C(F)(F)c2ccccc2)n1` [Example 83, (4R)-4-Amino-1-[4-[4-[6-[difluoro(phenyl)methyl]-2-methyl-pyrimidin-4-yl]piperazin-1-yl]sulfonylphenyl]pyrrolidin-2-one] gave a pIC50 in assay [1] of 8.43. Moreover, the MIC (in assay [2]; with E. coli (ATCC 25922)) was 1.7 µg/mL (≈ 3.13 µM) in each case.
`O=C1CC(N2C[C@@H]3C[C@H]2CN3)CN1c1ccc(S(=O)(=O)N2CCN(c3cc(C(F)(F)F)cc(Cl)n3)CC2)cc1` (stereo partly drawn) [Example 55, 1-[4-[4-[6-Chloro-4-(trifluoromethyl)-2-pyridyl]piperazin-1-yl]sulfonylphenyl]-4-[(1S,4S)-2,5-diazabicyclo[2.2.1]heptan-2-yl]pyrrolidin-2-one]: the pIC50 in assay [1] is 7.29. Moreover, the minimum inhibitory concentration (MIC) in assay [2] was 7.77 µg/mL (≈ 13.3 µM); in the assay with E. coli (ATCC 25922), 3.88 µg/mL (≈ 6.63 µM).
The compound `O=C1CC(N2CCN[C@@H](CO)C2)CN1c1ccc(S(=O)(=O)N2CCN(c3cc(C(F)(F)F)cc(Cl)n3)CC2)cc1` (stereo partly drawn) [Example 54, 1-[4-[4-[6-Chloro-4-(trifluoromethyl)-2-pyridyl]piperazin-1-yl]sulfonylphenyl]-4-[(3R)-3-(hydroxymethyl)piperazin-1-yl]pyrrolidin-2-one] had a pIC50 in assay [1] of 7.70. Besides, the figures for the MIC (in assay [2]; in the assay on E. coli (ATCC 25922)) were 4 µg/mL (≈ 6.63 µM) and 2 µg/mL (≈ 3.32 µM), respectively.
On the same counts, the results for `CO[C@@H]1OC(C2OC(=O)N(c3ccc(S(=O)(=O)N4CCN(c5cc(C(F)(F)F)cc(Cl)n5)CC4)cc3)C2C)[C@@H](O)[C@H]1O` (stereo partly drawn) [Example 22, 3-[4-[4-[6-Chloro-4-(trifluoromethyl)-2-pyridyl]piperazin-1-yl]sulfonylphenyl]-5-[(3S,4R,5R)-3,4-dihydroxy-5-methoxy-tetrahydrofuran-2-yl]-4-methyl-oxazolidin-2-one] are above 8.50, 1.99 µg/mL (≈ 3.12 µM) and 1.99 µg/mL (≈ 3.12 µM).
